Assay results from patent publication US12110289B2, “Heterocyclic compounds, preparation methods and uses thereof” (InventisBio Co., Ltd., priority 2020, dated 2024).
Like-named read-outs stand apart in the source and are kept apart here.

What was measured:
pooled human hepatocytes = experiment: Human hepatocyte clearance study; type: in vitro ADME
Experimental: (§1) The in vitro human hepatocyte clearance of compounds described here was studied using pooled human hepatocytes purchased from BioreclamationIVT (Westbury, NY, Cat #X008001, Lot #TQJ). The assay was conducted according to manufacturer's instruction. Briefly, 10 mM stock solutions of test compounds and positive control (Verapamil) were prepared in 100% DMSO. Thawing media (50 mL) used in the study consists of 31 mL Williams E medium (GIBCO Cat #12551-032), 15 mL isotonic percoll (GE Healthcare Cat #17-0891-09), 500 uL 100× GlutaMax (GIBCO Cat #35050), 750 uL HEPES (GIBCO Cat #15630-080), 2.5 mL FBS (Corning Cat #35-076-CVR), 50 uL human insulin (GIBCO Cat #12585-014) and 5 uL dexamethasone (NICPBP). Incubation media is made of Williams E medium supplemented with 1× GlutaMax. Both thawing medium and incubation medium (serum-free) were placed in a 37° C. water bath for at least 15 minutes prior to use. Compound stock solutions were diluted to 100 μM by combining 198 μL of 50% acetonitrile/50% water and 2 μL of 10 mM stock solution. Verapamil was use as positive control in the assay. Vials of cryopreserved hepatocytes were removed from storage and thawed in a 37° C. water bath with gentle shaking. Contents of the vial were poured into the 50 mL thawing medium conical tube. Vials were centrifuged at 100 g for 10 minutes at room temperature. […] […] […] The boiled hepatocytes were used to prepare negative samples. Aliquots of 198 μL hepatocytes were dispensed into each well of a 96-well non-coated plate. The plate was placed in the incubator on an orbital shaker at 500 rpm for approximately 10 minutes. Aliquots of 2 μL of the 100 μM test compound or positive control were added into respective wells of the non-coated 96-well plate to start the reaction. This assay was performed in duplicate. The plate was incubated in the incubator on an orbital shaker at 500 rpm for the designated time points. Twenty-five microliter of contents were transferred and mixed with 6 volumes (150 μL) of cold acetonitrile with IS (200 nM imipramine, 200 nM labetalol and 200 nM diclofenac) to terminate the reaction at time points of 0, 15, 30, 60, 90 and 120 minutes. Samples were centrifuged at 3,220 g for 25 minutes and aliquots of 150 μL of the supernatants were used for LC-MS/MS analysis. For data analysis, all calculations were carried out using Microsoft Excel. Peak areas were determined from extracted ion chromatograms. The in vitro half-life (t1/2) of parent compound was determined by regression analysis of the percent parent disappearance vs. time curve. […] Scaling factors for in vivo intrinsic clearance prediction using human hepatocytes are listed as: liver weight (g liver/kg body weight): 25.7; hepatocyte concentration (10^6 cells/g liver): 99; scaling factor: 2544.3.

[1] = Human hepatocyte clearance study; type: in vitro ADME; conditions: human, pooled cryopreserved human hepatocytes (suspension); for hepatocyte CLint at 1 µM: read-out: Human In vitro Clint (μl/min/10^6 cells); for half-life at 1 µM: read-out: Human In vitro T1/2; for CLint scaled at 1 µM: read-out: Human Scale-up Clint
Experimental: as §1

[2] = system: Lung cancer cell line NCI-H358 containing KRas G12C mutation; experiment: Assay for cell proliferation (Cell-titer Glo, 5 days); type: cell-based, human; conditions: Homo sapiens, NCI-H358, 120 h, NCI-H358, 5 days, Cell-titer Glo; read-out: IC50 (nM), Inhibition of NCI-H358 Cell Proliferation
Method in brief: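 NCI-H358 (KRas G12C) cells, 2000 per well, attached overnight at 37 °C, 5% CO2, then treated with compound for 5 days at 0.5% DMSO final. Proliferation measured by CellTiter-Glo luminescence after 10 min at RT.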

[3] = working cell density 0.5 × 10^6 viable cells/mL
[4] = working cell density 0.5 × 10^6 viable cells/mL, scaling factor 2544.3
[5] = working cell density 2 × 10^6 viable cells/mL

| SMILES | IC50 [2] [nM] | Human Hepatocyte Remaining Percentage @ 120 min (%) (pooled human hepatocytes; [3]) | hepatocyte CLint at 1 µM [1, 3] [µL/min/1e6 cells] | half-life at 1 µM [1, 3] [h] | CLint scaled at 1 µM [1, 4] [mL/min/kg] | Human In vitro T1/2 (min) (pooled human hepatocytes; [3]) | Human Hepatocyte Remaining Percentage @ 120 min (%) (pooled human hepatocytes; [5]) | hepatocyte CLint at 1 µM [1, 5] [µL/min/1e6 cells] | half-life at 1 µM [1, 5] [h] | CLint scaled at 1 µM [1, 5] [mL/min/kg] |
| --- | --- | --- | --- | --- | --- | --- | --- | --- | --- | --- |
| C=CC(=O)N1CCN(c2nc(=O)n(-c3c(C4CC4)ncnc3C3CC3)c3nc(-c4ccccc4F)c(Cl)cc23)[C@@H](C)C1 [Compound 1] | 10 | 27.9 | 20.8 | 1.11 | 53 | – | – | – | – | – |
| C=CC(=O)N1CCN(c2nc(=O)n(-c3c(C(C)C)nc(N)nc3C(C)C)c3nc(-c4ccccc4F)c(Cl)cc23)[C@@H](C)C1 [Compound 6] | 4.9 | 33.4 | 19.3 | 1.2 | 49.2 | – | – | – | – | – |
| C=CC(=O)N1CCN(c2nc(=O)n(-c3c(C(C)C)nc(OC)nc3C(C)C)c3nc(-c4ccccc4F)c(Cl)cc23)[C@@H](C)C1 [Compound 8] | 11.2 | 2.1 | 63.8 | 0.362 | 162 | – | – | – | – | – |
| C=CC(=O)N1CCN(c2nc(=O)n(-c3c(C(C)C)nc(C)nc3C(C)C)c3nc(-c4ccccc4F)c(Cl)cc23)[C@@H](C)C1 [Compound 9] | 4.1 | 18.6 | 27.6 | 0.837 | 70.2 | – | – | – | – | – |
| C=CC(=O)N1CCN(c2nc(=O)n(-c3c(C(C)C)nc(OCCN(C)C)nc3C(C)C)c3nc(-c4ccccc4F)c(Cl)cc23)[C@@H](C)C1 [Compound 13] | 6.5 | 103 | – | – | – | ∞^b | – | – | – | – |
| C=CC(=O)N1CCN(c2nc(=O)n(-c3c(C(C)C)nc(N4CCNCC4)nc3C(C)C)c3nc(-c4ccccc4F)c(Cl)cc23)[C@@H](C)C1 [Compound 14] | 8.8 | 75.7 | 4.5 | 5.1 | 11.5 | – | – | – | – | – |
| C=CC(=O)N1CCN(c2nc(=O)n(-c3c(C4CC4)nc(OCCN(C)C)nc3C3CC3)c3nc(-c4ccccc4F)c(Cl)cc23)[C@@H](C)C1 [Compound 20] | 6.7 | 74.3 | 5.1 | 4.57 | 12.9 | – | – | – | – | – |
| C=CC(=O)N1CCN(c2nc(=O)n(-c3c(C4CC4)nc(OCCN(C)C)nc3C3CC3)c3nc(-c4ccccc4F)c(F)cc23)[C@@H](C)C1 [Compound 21] | 29.9 | 90.6 | 1.8 | 13.1 | 4.5 | – | – | – | – | – |
| C=CC(=O)N1CCN(c2nc(=O)n(-c3c(C(C)C)nc(OCCN(C)C)nc3C(C)C)c3nc(-c4c(O)cccc4F)c(Cl)cc23)[C@@H](C)C1 [Compound 22] | 7.6 | 83.3 | 2.9 | 7.87 | 7.5 | – | – | – | – | – |

Continued, in another order:

| IC50 [2] [nM] | SMILES | Human Hepatocyte Remaining Percentage @ 120 min (%) (pooled human hepatocytes; [3]) | hepatocyte CLint at 1 µM [1, 3] [µL/min/1e6 cells] | half-life at 1 µM [1, 3] [h] | CLint scaled at 1 µM [1, 4] [mL/min/kg] | Human In vitro T1/2 (min) (pooled human hepatocytes; [3]) | Human Hepatocyte Remaining Percentage @ 120 min (%) (pooled human hepatocytes; [5]) | hepatocyte CLint at 1 µM [1, 5] [µL/min/1e6 cells] | half-life at 1 µM [1, 5] [h] | CLint scaled at 1 µM [1, 5] [mL/min/kg] |
| --- | --- | --- | --- | --- | --- | --- | --- | --- | --- | --- |
| 6.9 | C=CC(=O)N1CCN(c2nc(=O)n(-c3c(C(C)C)nc(OCCN(C)C)nc3C(C)C)c3nc(-c4c(N)cccc4F)c(Cl)cc23)[C@@H](C)C1 [Compound 23] | 82.4 | 2.5 | 9.23 | 6.4 | – | – | – | – | – |
| 9.1 | C=CC(=O)N1C[C@H](C)N(c2nc(=O)n(-c3c(C(C)C)nc(OCCN(C)C)nc3C(C)C)c3nc(-c4ccccc4F)c(Cl)cc23)C[C@H]1C [Compound 24] | 70.1 | 5.9 | 3.9 | 15.1 | – | – | – | – | – |
| 23.3 | C=CC(=O)N1CCN(c2nc(=O)n(-c3c(C4CC4)nc(C)nc3C3CC3)c3nc(-c4c(O)cccc4F)c(F)cc23)[C@@H](C)C1 [Compound 28] | 61.1 | 8.4 | 2.73 | 21.5 | – | – | – | – | – |
| 11.4 | C=CC(=O)N1CCN(c2nc(=O)n(-c3c(C4CC4)nc(C)nc3C3CC3)c3nc(-c4c(N)cccc4F)c(F)cc23)[C@@H](C)C1 [Compound 29] | 60.8 | 8.5 | 2.72 | 21.7 | – | – | – | – | – |
| 7.5 | C=CC(=O)N1CCN(c2nc(=O)n(-c3c(C4CC4)ncnc3C3CC3)c3nc(-c4c(O)cccc4F)c(F)cc23)[C@@H](C)C1 [Compound 40] | – | – | – | – | – | 20.7 | 12.7 | 0.91 | 32.3 |
| 6.9 | C=CC(=O)N1CCN(c2nc(=O)n(-c3c(C4CC4)ncnc3C3CC3)c3nc(-c4c(N)cccc4F)c(F)cc23)[C@@H](C)C1 [Compound 41] | – | – | – | – | – | 38.9 | 8.2 | 1.41 | 20.9 |
| 22.8 | C=CC(=O)N1C[C@H](C)N(c2nc(=O)n(-c3c(C4CC4)nc(C)nc3C3CC3)c3nc(-c4c(O)cccc4F)c(F)cc23)C[C@H]1C [Compound 52] | 65.3 | 7.3 | 3.17 | 18.5 | – | – | – | – | – |
| 13.1 | C=CC(=O)N1CCN(c2nc(=O)n(-c3ccc4c(ncn4C)c3C(C)C)c3nc(-c4ccccc4F)c(Cl)cc23)[C@@H](C)C1 [Compound 72] | 41.2 | 13.3 | 1.73 | 34 | – | – | – | – | – |
| 2.4 | C=CC(=O)N1CCN(c2nc(=O)n(-c3c(C4CC4)ncnc3C3CC3)c3nc(-c4c(N)cccc4F)c(Cl)cc23)[C@@H](C)C1 [Compound 124] | – | – | – | – | – | 37.5 | 8.5 | 1.35 | 21.7 |
| 6.1 | C=CC(=O)N1CCN(c2nc(=O)n(-c3c(C4CC4)ncnc3C3CC3)c3nc(-c4c(O)cccc4F)c(Cl)cc23)[C@@H](C)C1 [Compound 125] | – | – | – | – | – | 16.5 | 14.5 | 0.8 | 36.8 |
| 3.5 | C=CC(=O)N1C[C@H](C)N(c2nc(=O)n(-c3c(C4CC4)ncnc3C3CC3)c3nc(-c4c(O)cccc4F)c(Cl)cc23)C[C@H]1C [Compound 127] | – | – | – | – | – | 55.5 | 4.4 | 2.64 | 11.1 |
| 8.7 | C=CC(=O)N1C[C@H](C)N(c2nc(=O)n(-c3c(C4CC4)ncnc3C3CC3)c3nc(-c4ccccc4F)c(Cl)cc23)C[C@H]1C [Compound 128] | – | – | – | – | – | 39.9 | 10.3 | 1.12 | 26.1 |
